Like-named read-outs stand apart in the source and are kept apart here.
Legend:
gastric mucosa = assay type: in vivo, rats
Description: The action of equimolecular doses of TF 914 and acetylsalicylic acid on gastric mucosa was evaluated by administering the products by the oral route to rats fasted for 18 hours at least.

[1] = system: Phenylquinone writhing in the mouse; experiment: Analgesic activity - phenylquinone writhing test (Siegmund method); assay type: in vivo; details: for Mean number of writhings: equimolecular doses os (acetylsalicylic acid 100 mg/kg, TF 914 180 mg/kg) 30 min. before i.p. phenylquinone; for N. animals showing writhing / % inhib. vs. contr.: os (acetylsalicylic acid 100 mg/kg, TF 914 180 mg/kg); for % inhib. vs. contr.: writhings
Description: The analgesic activity was studied by the quinone writhing test in the mouse according to the method of Siegmund E. et al. (Proc. Soc. Exp. Biol. Med., 1957, 95, 729). TF 914 was orally administered, in comparison with acetylsalicylic acid, in equimolecular doses. The two drugs were administered 30 min. before intraperitoneal injection of phenylquinone.

[2] = Acute toxicity by single administration (LD50, Litchfield and Wilcoxon); details: in vivo
Description: Toxicity by single administrations of TF 914 was studied in the mouse and the rat, by oral and intraperitoneal route.
LD₅₀ values were calculated according to the method of Litchfield and Wilcoxon (J. Pharm. Exp. Therap., 1949, 96, 99).
The obtained results, which are summarized in table 1, evidenced that TF 914 has no toxicity.

[3] = system: carrageenin induced pleuritis; experiment: Antiinflammatory activity - carrageenin induced pleuritis test (Vinegar method); assay type: in vivo, rat; details: 5 h; for EXUDATE VOLUME ml: 100 mg/kg p.o. 1 hour before carrageenin; for N. LEUKOCYTES % inhib. vs. contr. / EXUDATE VOLUME % vs.contr. / N. LEUKOCYTES ml: 100 mg/kg p.o.; for EXUDATE VOLUME % vs.contr.: protection on exudate volume; for N. LEUKOCYTES ml: total number of leukocytes in pleuric exudate
Description: The antiinflammatory activity was tested by the carrageenin induced pleuritis test in the rat, according to the method of Vinegar R. et al. (Proc. Soc. Exp. Biol. Mod., 1973, 143, 3).
TF 914 and phenylbutazone as a control were administered orally in equiponderal doses, 1 hour before the carrageenin injection in the pleuric cavity.
Five hours later the animals were killed, and volume of the pleuric exudate and total number of leukocytes therein were evaluated.

[4] = system: bronchosecretolytic activity; experiment: Bronchosecretolytic activity (Mawatari method); assay type: in vivo, male Wistar rat; details: equimolecular doses os (TF 914 360 mg/kg, Thiola 200 mg/kg); 10 animals
Description: The bronchosecretolytic activity was evaluated in the male Wistar rat by oral administration of TF 914 ac cording to the method of Mawatari (Mawatari H. Kagoshima Daigaku Igaku-Zasshi- 27, 561, 1976), in comparison with Thiola®, in equimolecular doses.

[5] = system: Carrageenin oedema in the rat; experiment: Antiinflammatory activity - carrageenin oedema test (Winter method); assay type: in vivo; details: for PAW/VOLUME ml/10 - M ± ES 2h / PAW/VOLUME ml/10 - M ± ES 4h / PAW/VOLUME ml/10 - M ± ES 6h / PAW/VOLUME ml/10 - M ± ES 8h / PAW/VOLUME ml/10 - M ± ES 24h / PAW/VOLUME ml/10 - M ± ES Basal: equimolecular doses p.o. (ASA 100 mg/kg, TF 914 180 mg/kg) 30 minutes before carrageenin; for PAW/VOLUME ml/10 - M ± ES Basal: 10 animals; for AREAS Δ % M ± ES: area of the oedema curve; for AREAS Δ % M ± ES / AREAS inhib. vs. contr.: p.o. (ASA 100 mg/kg, TF 914 180 mg/kg); for AREAS inhib. vs. contr.: inhibition of area vs. control
Description: Antiinflammatory activity of TF 914 was evaluated by means of the carrageenin oedema test in the rat, according to the method of Winter, Rissly, Ness (Proc. Soc. Exp. Biol. Med., 1962, 111, 544), in comparison with acetylsalicylic acid at equimolecular doses.
The compound under test and acetylsalicylic acid, as a comparison, were administered by the oral route 30 minutes before subplantar injection of carrageenin. […]
The obtained results, which are shown in table 2, evidence the marked antiinflammatory activity of TF 914, said activity being higher than that of acetylsalicylic acid in equimolecular doses, under the experimental conditions used.

[6] = Pharmacokinetics after oral administration, HPLC; assay type: in vivo; details: rat, equimolecular doses, vs. acetylsalicylic acid and Thiola
Description: The pharmakinetics studies on TF 914 were carried out in the rat, in comparison with acetylsalicylic acid and Thiola®, after oral administration of equimolecular doses of the three compounds.
Measurements were performed by HPLC.

SMILES	Mean number of writhings [1]	N. animals showing writhing [1]	% inhib. vs. contr. [1]	EXUDATE VOLUME ml [3]	N. LEUKOCYTES % inhib. vs. contr. [3]	N. LEUKOCYTES ml [3]	% increase of FlNa in comparison with controls [4]	PAW/VOLUME ml/10 - M ± ES 2h [5]	PAW/VOLUME ml/10 - M ± ES 4h [5]	PAW/VOLUME ml/10 - M ± ES 6h [5]	PAW/VOLUME ml/10 - M ± ES 8h [5]	PAW/VOLUME ml/10 - M ± ES 24h [5]	PAW/VOLUME ml/10 - M ± ES Basal [5]	AREAS Δ % M ± ES [5]	AREAS inhib. vs. contr. [5]	other results
CC(SC1(C)OC(=O)c2ccccc2O1)C(=O)NCC(=O)O (stereo not drawn) [TF 914, 2-methyl-2[1-(carboxy-methyl-amino-carbonyl)ethyl]thio-4-oxo-benzodioxane-1.3]	1.8 ± 1.1	3/10	85.93%	1,79 ±0,25 ml	19.5%	10,84 ±1,32 ml	35.6%	53,3 ± 1,6 ml/10	60,4 ± 2,0 ml/10	61,8 ± 2,7 ml/10	54,5 ± 2,8 ml/10	45,1 ± 1,5 ml/10	42,8 ± 0,7 ml/10	145,4 ± 20,4%	43,3	gastro-injuring action (in words) (gastric mucosa; rat, in vivo, po): substantially has no gastro-injuring action; LD50 ([2]; ip, Mouse): > 3000 mg/kg; LD50 ([2]; po, Mouse, os): > 3000 mg/kg; LD50 ([2]; po, Rat, os): > 3000 mg/kg; N. LEUKOCYTES % inhib. vs. contr. ([3]; listed as MR 914): 19,5%; EXUDATE VOLUME % vs.contr. ([3]; 100 mg/kg): 27.2%; EXUDATE VOLUME % vs.contr. ([3]; listed as MR 914, 100 mg/kg): 27,2%; bioavailability (in words) [6]: better bioavailability; persistence in blood stream (in words) [6]: remain in blood stream for longer periods
CC(=O)Oc1ccccc1C(=O)O [ASA, Acetylsalicylic acid, reference compound]	1.4 ± 0.9	3/10	89.06%					58,3 ± 2,5 ml/10	66,0 ± 3,0 ml/10	59,3 ± 1,7 ml/10	52,8 ± 2,6 ml/10	45,3 ± 1,5 ml/10	43,1 ± 1,5 ml/10	161,5 ± 20,9%	37,0	Ulcer size (mm) x ± es (gastric mucosa; equimolecular doses os (ASA 100 mg/kg, TF 914 180 mg/kg), rats fasted at least 18 hours, 6 hours after treatment): 3.6 ± 1.34 mm; gastro-injuring action (in words) (gastric mucosa; examination of the mucosa 6 hours after oral treatment, equimolecular doses): marked gastro-injuring effects
CC(S)C(=O)NCC(=O)O (stereo not drawn) [Thiola®, reference compound]							33.4%									
CCCCC1C(=O)N(c2ccccc2)N(c2ccccc2)C1=O [PHENYLBUTAZONE, phenylbutazone, reference compound]				1,75 ±2,25 ml	36,7%	8,52 ±1,27 ml										EXUDATE VOLUME % vs.contr. [3]: 28,9%
